Reference: publication PMC4457643 (Biochimica et biophysica acta, 2015)
Read-outs that look alike come from different tables or passages of the source.

How the values were obtained:
CcP(triVal) [1] = target: T1, CcP(triVal) (Saccharomyces cerevisiae, UniProt P00431, H119V/R115V/W118V); experiment: Stopped-flow kinetics of imidazole binding to CcP; parameters: species or system yeast; conditions: for pKa1 for ka^app / kd^app, k^acid (low pH limit): fit to Eq. 4; for ka^app, k^acid (low pH value): fit to Eq. 4, 0.10 M ionic strength, 25 °C; for ka^app / kd^app / kmax: pH 7
CcP(triAla) [2] = target: T2, CcP(triAla) (Saccharomyces cerevisiae, UniProt P00431, H119A/R115A/W118A); experiment: Stopped-flow kinetics of imidazole binding to CcP; parameters: species or system yeast
CcP(triLeu) [3] = target: T3, CcP(triLeu) (Saccharomyces cerevisiae, UniProt P00431, H119L/R115L/W118L); experiment: biochemical; format: binding, yeast
CcP(triVal) [4] = target: T1, CcP(triVal); experiment: biochemical; format: binding, yeast; conditions: for share of absorbance change, high-affinity (KD1) phase / share of absorbance change, low-affinity (KD2) phase: pH 7.0
CcP(triLeu) [5] = target: T3, CcP(triLeu); experiment: Stopped-flow kinetics of imidazole binding to CcP; parameters: species or system yeast; conditions: for pKa1 for ka^app / pKa2 for ka^app: fit to Eq. 4 with pKa1 ≤ pKa2
CcP(triAla) [6] = target: T2, CcP(triAla); experiment: biochemical; format: binding, yeast; conditions: for share of absorbance change, high-affinity (KD1) phase / share of absorbance change, low-affinity (KD2) phase: pH 7.0
[7] = free ligand; cited from earlier work
[8] = fast phase, listed as imidazole
[9] = slow phase, listed as imidazole
[10] = fast phase, fit to Eq. 4, 0.10 M ionic strength, 25 °C
[11] = read-out: KD1 (high-affinity phase), pH 7.0, 0.10 M ionic strength potassium phosphate buffer
[12] = read-out: KD1base (high pH limit of KD1), fit of pH dependence pH 4-8 to Eq. 2
[13] = read-out: KD2 (low-affinity phase), pH 7.0, 0.10 M ionic strength potassium phosphate buffer
[14] = read-out: KD1acid (low pH limit of KD1), fit of pH dependence pH 4-8 to Eq. 2
[15] = read-out: KD2base (high pH limit of KD2), fit of pH dependence pH 4-8 to Eq. 2
[16] = slow phase, single-ionization fit

T1 sequence (P00431 68-361 R115V/W118V/H119V): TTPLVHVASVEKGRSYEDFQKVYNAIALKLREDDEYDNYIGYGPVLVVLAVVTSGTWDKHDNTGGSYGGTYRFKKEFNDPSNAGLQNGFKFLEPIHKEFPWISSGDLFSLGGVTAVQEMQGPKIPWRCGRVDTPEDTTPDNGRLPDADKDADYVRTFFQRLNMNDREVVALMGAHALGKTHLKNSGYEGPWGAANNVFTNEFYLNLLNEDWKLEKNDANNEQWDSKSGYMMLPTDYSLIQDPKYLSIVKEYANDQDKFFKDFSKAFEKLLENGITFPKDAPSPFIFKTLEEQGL
T2 sequence (P00431 68-361 R115A/W118A/H119A): as the sequence (P00431 68-361 R115V/W118V/H119V) above, with V48A, V51A, V52A counted along it
T3 sequence (P00431 68-361 R115L/W118L/H119L): as the sequence (P00431 68-361 R115V/W118V/H119V) above, with V48L, V51L, V52L counted along it

## c1c[nH]cn1 [Imidazole]
CcP(triVal) [1]; fast phase
  pKa1 for ka^app: 6.2 ± 0.3
  ka^app, k^acid (low pH value): 5.4 ± 16.2 M^−1 s^−1
  ka^app: 170 ± 7 M⁻¹ s⁻¹
  kd^app: 0.32 ± 0.01 s⁻¹
  kmax: 1.9 ± 0.1 s⁻¹
CcP(triVal) [1]; [8]
  ka^app, k^acid (low pH value): 5.4 M^−1 s^−1
CcP(triVal) [1]; fast phase, pH range 4 to 8
  kd^app, pH-independent average value: 0.25 ± 0.08 s^−1
  kmax, pH-independent value: 1.5 ± 0.3 s^−1
CcP(triVal) [1]; fast phase, pH range 4 to 8, listed as imidazole
  kmax, pH-independent value: 1.5 s^−1
CcP(triVal) [1]; slow phase
  kd^app, k^acid (low pH limit): 0.026 ± 0.009 s^−1
  pKa1 for ka^app: 7.6 ± 0.3
  ka^app, k^acid (low pH value): 1.3 ± 0.7 M^−1 s^−1
  ka^app: 30 ± 10 M⁻¹ s⁻¹
  kd^app: 0.050 ± 0,006 s^−1
  kmax: 0.16 ± 0.08 s⁻¹
CcP(triVal) [1]; [9]
  ka^app, k^acid (low pH value): 1.3 M^−1 s^−1
  kd^app, k^acid (low pH limit): 0.026 s^−1
CcP(triVal) [1]; slow phase, pH range 4 to 8
  kmax, pH-independent value: 0.17 ± 0.04 s^−1
CcP(triVal) [1]; slow phase, pH range 4 to 8, listed as imidazole
  kmax, pH-independent value: 0.17 s^−1
CcP(triAla) [2]; fast phase, fit to Eq. 4
  pKa1 for ka^app: 7.0 ± 0.2
CcP(triAla) [2]; [10]
  ka^app, k^acid (low pH value): 2.2 ± 0.4 M^−1 s^−1
CcP(triAla) [2]; fast phase, pH 7
  ka^app: 80 ± 7 M⁻¹ s⁻¹
  kd^app: 0.43 ± 0.04 s⁻¹
CcP(triAla) [2]; fast phase, pH range 4.0 to 8.0
  kd^app, pH-independent average value: 0.47 ± 0.10 s^−1
CcP(triAla) [2]; slow phase, pH 7
  kmax: 0.050 ± 0.009 s⁻¹
CcP(triAla) [2]; slow phase, pH range 4.0 to 8.0
  kmax (= kslow), pH-independent average value: 0.032 ± 0.011 s^−1
CcP(triAla) [2]; slow phase, pH range 4.0 to 8.0, listed as imidazole
  kmax (= kslow), pH-independent average value: (3.2 ± 1.1) × 10^−2 s^−1
CcP(triLeu) [3]; pH 7.0
  share of absorbance change, high-affinity (KD1) phase: 78%
  share of absorbance change, low-affinity (KD2) phase: 22%
CcP(triLeu) [3]; [11]
  Kd: 0.6 mM
CcP(triLeu) [3]; [12]
  Kd: 0.22 ± 0.15 mM
CcP(triLeu) [3]; [13]
  Kd: 17 mM
CcP(triVal) [4]; pH 7
  high-affinity imidazole binding stronger than for wild-type CcP: 4.7 orders of magnitude
CcP(triVal) [4]
  share of absorbance change, high-affinity (KD1) phase: 68%
  share of absorbance change, low-affinity (KD2) phase: 32%
CcP(triVal) [4]; pH range 4 to 8
  share of absorbance change, high-affinity phase, average: 67 ± 10%
CcP(triVal) [4]; [11]
  Kd: 83 µM
CcP(triVal) [4]; [14]
  Kd: 9600 ± 5500 µM
CcP(triVal) [4]; [12]
  Kd: 96 ± 7 µM
CcP(triVal) [4]; read-out: KD1base (high pH limit of KD1), fit of pH dependence to Eq. 2
  Kd: 96 ± 7 µM
CcP(triVal) [4]; [13]
  Kd: 12000 µM
CcP(triVal) [4]; [15]
  Kd: 6700 ± 2300 µM
CcP(triLeu) [5]; [10]
  ka^app, k^acid (low pH value): 2.2 ± 0.4 M^−1 s^−1
  ka^app, k^base (high pH value): 0 ± 25 M^−1 s^−1
CcP(triLeu) [5]; fast phase, fit to Eq. 4, 0.10 M ionic strength, 25 °C, listed as imidazole
  ka^app, k^base (high pH value): less than 25 M^−1 s^−1
CcP(triLeu) [5]; fast phase
  pKa1 for ka^app: 7.3 ± 0.9
  pKa2 for ka^app: 7.3 ± 1.5
CcP(triLeu) [5]; [8]
  pKa1 for ka^app: 7.3
  pKa2 for ka^app: 7.3
CcP(triLeu) [5]; fast phase, pH 7
  ka^app: 36 ± 4 M⁻¹ s⁻¹
  kd^app: 0.24 ± 0.03 s⁻¹
CcP(triLeu) [5]; fast phase, pH range 4 to 8
  kd^app, pH-independent average value: 0.38 ± 0.12 s^−1
CcP(triLeu) [5]; slow phase, averaged over pH range 4 to 8
  kmax, average value: 0.048 ± 0.018 s⁻¹
CcP(triLeu) [5]; slow phase, pH 7
  kmax: 0.070 ± 0.002 s⁻¹
CcP(triLeu) [5]; [16]
  kmax (= kslow), k^acid (low pH value): 0.032 ± 0.003 s^−1
  kmax (= kslow), k^neut (high pH value): 0.077 ± 0.011 s^−1
  pKa1 for kmax: 6.7 ± 0.4
CcP(triAla) [6]; between pH 4 and 8
  share of absorbance change at 414 nm, low-affinity phase: 75 ± 8%
CcP(triAla) [6]; pH 5.5
  share of absorbance change, low-affinity phase: 76%
CcP(triAla) [6]
  share of absorbance change, high-affinity (KD1) phase: 17%
  share of absorbance change, low-affinity (KD2) phase: 83%
CcP(triAla) [6]; read-out: KD1 (high-affinity phase), pH 5.5, 25 °C
  Kd: 0.1 ± 0.03 mM
CcP(triAla) [6]; [11]
  Kd: 0.22 mM
CcP(triAla) [6]; [14]
  Kd: > 25 mM
CcP(triAla) [6]; [12]
  Kd: 0.13 ± 0.06 mM
CcP(triAla) [6]; [13]
  Kd: 12 mM
CcP(triAla) [6]; read-out: KD2 (low-affinity phase), pH 7.0, 25 °C
  Kd: 11 ± 1 mM
CcP(triAla) [6]; [15]
  Kd: 6.4 ± 0.7 mM

## Cn1ccnc1 [1-Methylimidazole, 1-methylimidazole]
CcP(triLeu) [3]
  Kd: 39 mM
CcP(triVal) [4]
  Kd: 160 µM
  share of absorbance change, high-affinity (KD1) phase: 77%
  share of absorbance change, low-affinity (KD2) phase: 23%
CcP(triVal) [4]; [13]
  Kd: 6800 µM
CcP(triAla) [6]
  Kd: 0.35 mM
  share of absorbance change, high-affinity (KD1) phase: 30%
  share of absorbance change, low-affinity (KD2) phase: 70%
CcP(triAla) [6]; listed as MIM
  share of absorbance change, low-affinity (KD2) phase: about 70%

## O=[N+]([O-])c1c[nH]cn1 [4-Nitroimidazole, 4-nitroimidazole]
[7]
  pKa for the imidazole/imidazolate ionization: 9.5
CcP(triLeu) [3]
  Kd: 35 mM
CcP(triVal) [4]
  Kd: 560 µM
CcP(triAla) [6]
  Kd: 16 mM
